Source: ChEMBL document CHEMBL1268904, “Potent and selective HIV-1 ribonuclease H inhibitors based on a 1-hydroxy-1,8-naphthyridin-2(1H)-one scaffold” (Bioorg Med Chem Lett, 2010)

Key:
[1] = biological target: Human immunodeficiency virus type 1 integrase (Human immunodeficiency virus 1, UniProt Q7ZJM1); assay: Inhibition of HIV1 integrase strand transfer activity
[2] = Cytotoxicity against human HeLaP4-2 cells by alamar blue assay; format: cell-based
[3] = tested on: Human immunodeficiency virus 1; assay: Selectivity ratio of IC50 for HIV1 reverse transcriptase D443N mutant RNA-dependent DNA plymerase activity to IC50 for wild type HIV1 reverse transcriptase RNasH activity
[4] = Therapeutic index, ratio of CC50 for human HeLaP4-2 cells to IC50 for HIV1 HXB2 infected in human HeLaP4-2 cells; format: cell-based; details: HeLaP4-2 cells infected with HIV1 HXB2, read-out: Ratio CC50/IC50
[5] = biological target: Human immunodeficiency virus type 1 reverse transcriptase (Human immunodeficiency virus 1, UniProt Q72547); assay: Inhibition of wild type HIV1 reverse transcriptase RNasH activity
[6] = tested on: Human immunodeficiency virus 1; assay: Selectivity ratio of IC50 for HIV1 integrase strand transfer activity to IC50 for wild type HIV1 reverse transcriptase RNasH activity
[7] = tested on: Human immunodeficiency virus 1; assay: Antiviral activity against HIV1 HXB2 infected in human HeLaP4-2 cells assessed as inhibition of single-cycle viral replication; format: functional, organism-based; details: Human immunodeficiency virus 1, HXB2, HeLaP4-2
[8] = Inhibition of HIV1 reverse transcriptase D443N mutant RNA-dependent DNA plymerase activity; set-up: species or system Human immunodeficiency virus 1
[9] = Cytotoxicity against human HeLaP4-2 cells up to 50 uM by alamar blue assay; format: cell-based
[10] = Lipophilicity, log P of the compound; format: physicochemical; details: octanol/water
MT4 = assay: Cytotoxicity against human MT4 cells at 1.5 uM; format: cell-based; details: mt4, 1.5 µM
[11] = tested on: Human immunodeficiency virus 1; assay: Selectivity ratio of IC50 for HIV1 integrase Y143R mutant strand transfer activity to IC50 for HIV1 integrase strand transfer activity
[12] = tested on: Human immunodeficiency virus 1; assay: Selectivity ratio of IC50 for HIV1 integrase N155H mutant strand transfer activity to IC50 for HIV1 integrase strand transfer activity
[13] = tested on: Human immunodeficiency virus 1; assay: Antiviral activity against HIV1 3B infected in human MT4 cells assessed as decrease in viral p24 antigen level after 14 to 21 days; format: functional; details: Human immunodeficiency virus 1, 3B
[14] = tested on: Human immunodeficiency virus 1; assay: Selectivity ratio of IC50 for HIV1 integrase Q148R mutant strand transfer activity to IC50 for HIV1 integrase strand transfer activity

Human immunodeficiency virus type 1 integrase, sequence (Q7ZJM1 whole entry): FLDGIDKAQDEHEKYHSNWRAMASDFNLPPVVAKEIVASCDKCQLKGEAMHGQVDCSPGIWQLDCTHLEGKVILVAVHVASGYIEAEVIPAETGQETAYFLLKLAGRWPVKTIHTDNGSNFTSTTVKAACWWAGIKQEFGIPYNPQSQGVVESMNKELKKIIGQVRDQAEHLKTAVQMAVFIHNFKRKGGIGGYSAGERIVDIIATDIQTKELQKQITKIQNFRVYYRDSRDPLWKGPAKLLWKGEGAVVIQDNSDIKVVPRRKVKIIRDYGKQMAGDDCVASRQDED

Row | Compound | IC50 [1] [µM] | CC50 [2] [µM] | Ratio IC50 [3] | selectivity ratio [4] | IC50 [5] [µM] | Ratio IC50 [6] | IC50 [7] [µM] | IC50 [8] [µM] | Activity [9] | logP [10] | Activity (MT4) | Ratio IC50 [11] | Ratio IC50 [12] | IC95 [13] [µM] | Ratio IC50 [14]
1 | O=c1ccc2cccnc2n1O | 15 | 20 | 30 | 4 | 1.4 | 10 | 4.5 | > 50 | – | – | – | – | – | – | –
2 | O=c1cc(-c2cccc(-c3ccccc3)c2)c2cccnc2n1O | 2.4 | > 50 | – | – | 0.64 | – | 34 | 9 | – | – | – | – | – | – | –
3 | NCc1cccc(-c2cccc(-c3cc(=O)n(O)c4ncccc34)c2)c1 | 9.1 | 4.9 | – | 3 | 0.15 | – | 0.85 | 5.1 | – | – | – | – | – | – | –
4 | NCc1ccccc1-c1cccc(-c2cc(=O)n(O)c3ncccc23)c1 | 18 | 9.1 | – | 3 | 0.67 | – | 2.8 | 36 | – | – | – | – | – | – | –
5 | CCOC(=O)c1c(O)c2cccnc2n(O)c1=O | – | – | – | – | 0.11 | – | 2.5 | – | Non-toxic | 2.2 | – | – | – | – | –
6 | NCc1ccc(-c2cccc(-c3cc(=O)n(O)c4ncccc34)c2)cc1 | 7.8 | 2.3 | – | 3 | 0.13 | – | 0.62 | 16 | – | – | – | – | – | – | –
7 | NCc1ccc(-c2ccc(Cc3cc(=O)n(O)c4ncccc34)cc2)cc1 | 24 | 3.3 | – | 17 | 0.045 | – | 0.19 | 13 | – | 0.15 | Non-toxic | 0.84 | 1.1 | 0.92 | 1.9
8 | NCc1ccc(-c2cccc(Cc3cc(=O)n(O)c4ncccc34)c2)cc1 | 8.1 | 4.6 | – | 11 | 0.1 | – | 0.43 | 11 | – | – | – | – | – | – | –
